Source: PMC11718441, “Bis-3-chloropiperidines: a novel motif for anthelmintic drug design” (RSC Advances, 2025)
Values after ≈ are worked out from the molar mass of the structure shown. “Also recorded” adds a separate entry of the source. Read-outs that look alike come from different tables or passages of the source.

Key:
[1] = system: Schistosoma mansoni; test: In vitro tests against Schistosoma mansoni (vitality parameters of adult worm pairs); assay type: cell-based; conditions: for lethal effects / sucker detachment: 20 μM; for lethal effects: after seven days; for sucker detachment: after three days; for Effect on S. mansoni: 10 and 20 μM, up to 7 days, Det: detachment of suckers, Mot: motility reduction, Sep: pair separation; for activity against S. mansoni (100% effect strength in one parameter within 7 days = active): 10 or 20 μM
Protocol: Subsequently, we tested whether compounds with nematocidal activity display a broader activity also against parasitic flatworms. To this end, in vitro tests against the blood fluke S. mansoni were conducted (Fig. 4). The worms were incubated in presence of 10 and 20 μM of compounds 1–22 and phenotypic vitality parameters (separation of worm pairs, detachment of suckers from the bottom of the well and weakening of body movements) were assessed as previously described.[31] Compounds reaching 100% effect strength in one of the parameters within 7 days were considered active. Reduction of motility is considered most relevant for antischistosomal drug candidates.[32] In addition, loss of sucker activity would make parasites drifting off from their host habitat (mesenteric veins) and with pair separation, the production of pathology-causing eggs eventually ceases.[33] […] For some molecular targets e.g. glutamate and GABA chloride channels (ivermecin, abamectin) and β-tubulin (albendazole, mebendazole) the C. elegans assays results were transferable to Schistosoma, while for others e.g. acetylcholin mimetic (levamisole) the C. elegans MMIC was not predicative (Fig. S1 ^†).
2.2 Parasitological studies
Animal experiments were performed in accordance with Directive 2010/63/EU on the protection of animals used for scientific purposes and the German Animal Welfare Act. The experiments were approved by the Regional Council (Regierungspraesidium) Giessen (V54 – […]
A Liberian strain of S. mansoni was maintained in the freshwater snail Biomphalaria glabrata as intermediate host and Syrian hamsters (Mesocricetus auratus) as final host (Janvier Labs, France).5,6 Hamsters were infected at 8 weeks of age with 1,750 cercariae by using the paddling method.7 Adult worms were collected at 46 days p.i. by hepatoportal perfusion and cultured in M199 medium (Sigma-Aldrich, Germany) supplemented with 10% Newborn Calf Serum (NCS, Sigma-Aldrich), 1% 1 M HEPES (ThermoFisher Scientific, USA) and 1% ABAM solution (10,000 units/ml penicillin, 10 mg/ml streptomycin and […] amphotericin B; Sigma-Aldrich, Germany) at 37 °C, 5% CO2 and humidified atmosphere.
2.2.3. In vitro tests against Schistosoma mansoni
Test compounds were added at 10 µM or 20 µM in supplemented M199 medium to schistosomes (5 worm pairs per replicate) followed by a 7 d in vitro culture. Worms receiving the solvent DMSO at equal dilution served as negative control. The following vitality parameters were assessed every 24 h by bright field microscopy using a Leica DM IL inverted microscope and x2.5 objective lens: separation of worm pairs into male and female worms; detachment of suckers from the bottom; and weakening of body movements. Worm motility was scored as described previously, 8 with the scores 3 (normal motility), 2 (reduced motility), 1 (minimal and sporadic movements), 0 (no movements within 20 sec; dead worms). An average score of all worms per well was calculated to obtain a motility score. An average motility score of 0, separation of all pairs or detachment of all worms per well was considered

[2] = system: MDCK II cells; test: In vitro cytotoxicity, CellTiter-Glo, MDCK II cells; conditions: 100 μM; for MDCKII cytotoxicity: 48 h, cell viability less than 80% relative to DMSO control = cytotoxic
[3] = in vitro; conditions: dog
[4] = system: C. elegans strains N2 and DC19; test: MMIC against C. elegans, strains N2 and DC19 reported together or strain not stated; assay type: cell-based; conditions: Caenorhabditis elegans, 48 h
Excerpt: (§1) The cuticle of C. elegans strain DC19 is known to be more permeable for small molecules compared to the wildtype N2.[30] DC19 is thereby considered an informative drug-sensitive test organism. In our assays, we determined the minimum mobility inhibitory concentration (MMIC) as a proxy for anthelmintic activity. […] In contrast, MMICs of some small molecule anthelmintics such as albendazole, mebendazole or PF-1022A were lower for DC19 (Fig. S1 ^†). […]
(§2) 2.2 In vitro tests against Caenorhabditis Elegans
(§3) The minimal motility inhibitory concentration (MMIC) of compounds 1-22 against C. elegans was determined as described before.3 Both strains, C. elegans N2 and DC19 were treated identically. Briefly, pre-cultures of C.elegans were kept on NGM agar plates infused with auxotrophic E.coli OP50 as food source.4 After 4 days the plates contained sufficient gravid worms, respectively. Worms were washed from the plates with M9 buffer using wide bore pipette tips. Egg preparation was carried out by treating the harvested worms with an alkaline hypochlorite solution (5 M NaOH + 5 % NaOCl 1:2) in polypropylene tubes. Larvae and adult […]
(§4) We carried out 3 washing steps (M9 buffer) to remove carry-over hypochlorite solution. Subsequently, the eggs were incubated overnight in NGM broth on a rotator to yield synchronized hatched L1/L2 larvae. The larvae solution was adjusted to 100 worms/mL and supplemented with cholesterol (5 µg/mL), carbenicillin (25 µg/mL) and E.coli OP50 (0.5%). This assay solution was distributed into 96 well plates and incubated with a dilution series of compounds 1-22 (64-0.5 µg/mL). An additional eight-point dilution series of ivermecin (40 – 0.3 ng/mL) was used as positive control on each assay plate. Solvent background was controlled by supplementation of pure DMSO without any compound. Assays were incubated for 2 days at room temperature. Finally, a cell imaging multimode reader (Cytation™ 5) was used to record short videos (1.5 seconds) of each individual test well. The videos were used to evaluate the worm motility.

[5] = system: Septoria tritici MUCL45408; test: Minimum inhibitory concentration (MIC), S. tritici (ATP quantification); assay type: cell-based; conditions: Zymoseptoria tritici, MUCL45408, 96 h, read-out: MIC St
Protocol: (§5) The minimum inhibitory concentration (MIC) of the synthesized compounds was initially determined against three microbial indicator strains (Escherichia coli ATCC35218, […] ATCC33592, Septoria tritici MUCL45408). […]
(§6) 2. Microbial and parasitological studies
(§7) The minimum inhibitory concentration (MIC) of the synthesized compounds was determined against three microbial indicator strains (E. coli ATCC35218, S. aureus ATCC33592 and S. tritici MUCL45408) as previously described.1,2 All samples were dissolved in DMSO and tested in triplicate. Briefly, a pre-culture of E. coli and S. aureus was prepared by incubating the strains in cation adjusted Mueller Hinton 2 broth (Becton Dickinson, Sparks, NV, USA) at 37°C and 180 rpm overnight. The cell density of adjusted to 5 × 10^5 cells/mL before assays were incubated at 37 °C, 180 rpm and 85% rH. Three distinct dilution series of standard antibiotics (gentamicin, rifampicin, and tetracycline) were used as positive controls on each assay plate. Inoculated medium without test compound or positive control was used as negative control.
Medium background was averaged from 5 replicates. The turbidity of each well was measured with a microplate spectrophotometer at 600 nm (LUMIstar® Omega, BMG Labtech) and growth inhibition was calculated relative to the absorption of the controls. For S. tritici MUCL45408 inoculated at a density of 1 × 10^5 cells/mL in potato […]
dextrose medium. Septoria assay plates were incubated for 4 days at 25 °C, 180 rpm and 85% rH. Tebuconazole, amphotericin B, and nystatin were used as positive controls. Cell viability was evaluated via ATP quantification (BacTiter-Glo™, Promega GmbH, Walldorf, Germany) according to the manufacturer’s instructions. […]

[6] = system: Escherichia coli ATCC35218; test: microbe, parasite or virus in culture; assay type: cell-based; conditions: ATCC35218, read-out: MIC Ec
Protocol: as §5, §6
as §7, with “and tetracycline) were used as positive controls on each assay plate. Inoculated medium without test compound or positive control was used as negative control.” left out
(§8) medium without test compound or positive control was used as negative control.
(§9) Medium background was averaged from 5 replicates. The turbidity of each well was […]

[7] = system: S. aureus ATCC33592; test: microbe, parasite or virus in culture; assay type: cell-based; conditions: Staphylococcus aureus, ATCC33592, read-out: MIC Sa
Protocol: as §5, §6
as §7, with “and tetracycline) were used as positive controls on each assay plate. Inoculated medium without test compound or positive control was used as negative control.” left out
as §8, §9

[8] = system: C. elegans N2; test: whole plant or invertebrate; assay type: cell-based, Caenorhabditis elegans; conditions: Caenorhabditis elegans, 48 h, read-out: MMIC N2
Excerpt: as §1, §2, §3, §4

[9] = system: C. elegans DC19; test: whole plant or invertebrate; assay type: cell-based, Caenorhabditis elegans; conditions: Caenorhabditis elegans, 48 h, read-out: MMIC DC19
Excerpt: as §1, §2, §3, §4

[10] = C. elegans, read-out: MMIC N2 and DC19

| SMILES | lethal effects [1] | sucker detachment [1] | Effect on S. mansoni [1] | activity against S. mansoni (100% effect strength in one parameter within 7 days = active) [1] | cytotoxicity against MDCK II (in words) [2] | MDCKII cytotoxicity [2] | CC50 [3] [µM] | minimal effective concentration [4, 10] [µg/mL] | MIC [5] [µg/mL] | MIC [6] [µg/mL] | MIC [7] [µg/mL] | minimal effective concentration [8] [µg/mL] | minimal effective concentration [9] [µg/mL] | sucker detachment of Schistosoma worm pairs ([1]; 10 μM) | motility score ([1]; score 3 normal motility to 0 dead, paragraph on 20 μM) | separation of worm pairs ([1]; 10 μM, after 3 days) | minimal effective concentration ([4]; read-out: MMIC N2 and DC19, C. elegans) [µg/mL] |
| --- | --- | --- | --- | --- | --- | --- | --- | --- | --- | --- | --- | --- | --- | --- | --- | --- | --- |
| COc1cc(CN2CC(Cl)CC(C)(C)C2)cc(CN2CC(Cl)CC(C)(C)C2)c1 (stereo not drawn) [Compound 2] | lethal effect | sucker detachment already after three days | Det, Sep, Mot, Lethal | showed an effect on S. mansoni; also recorded: active at 20 μM | did not exhibit cytotoxic properties | − (“−” (not toxic)) | 83 | < 20 | 64 (≈ 150 µM) | > 64 | > 64 |  |  |  |  |  |  |
| COC(=O)c1cc(CN2CC(Cl)CC(C)(C)C2)cc(CN2CC(Cl)CC(C)(C)C2)c1 (stereo not drawn) [Compound 4] |  |  |  | no activity |  | − (“−” (not toxic)) | 205 | < 20 | > 64 | > 64 | > 64 | 16 | 16 |  |  |  |  |
| CC1(C)CC(Cl)CN(Cc2cc(CN3CC(Cl)CC(C)(C)C3)cc([N+](=O)[O-])c2)C1 (stereo not drawn) [Compound 5] |  |  | Det, Sep, Lethal | showed an effect on S. mansoni; also recorded: active at 10 μM |  | − (“−” (not toxic)) | > 1000 | < 20 | > 64 | > 64 | > 64 | 16 | 16 | full sucker detachment | 1–1.2 |  |  |
| COc1ccc(CN2CC(Cl)CC(C)(C)C2)c(CN2CC(Cl)CC(C)(C)C2)c1 (stereo not drawn) [Compound 9] | lethal effects | sucker detachment already after three days | Det, Sep, Lethal | Schistosoma-specific; also recorded: active at 20 μM | cytotoxic | + (“+” (toxic)) | 70 |  | > 64 | > 64 | > 64 | > 64 | 64 |  |  | separation of all worm pairs | 64 |
| CC1(C)CC(Cl)CN(Cc2cc(CN3CC(Cl)CC(C)(C)C3)cc(CN3CC(Cl)CC(C)(C)C3)c2)C1 (stereo not drawn) [Compound 21] |  |  |  | did not affect Schistosoma | did not exhibit cytotoxic properties | − (“−” (not toxic)) | > 1000 | < 20 | > 64 | > 64 | > 64 |  |  |  |  |  |  |
